Assay results reported in paper PMC8009520, “Exploration of TRPM8 Binding Sites by β-Carboline-Based Antagonists and Their In Vitro Characterization and In Vivo Analgesic Activities” (Journal of Medicinal Chemistry, 2020).
Where “and” joins values, the source holds several entries; their conditions need not be identical. Equal entries are not always repeated. Where two headings read alike, the source gives them in different places.

Columns and labels:
hNav1.7 = molecular target: T1, hNav1.7 (Homo sapiens, UniProt Q15858); assay: Selectivity fluorimetric assay, HEK-293 cells; format: cell-based; settings: veratridine as reference agonist
T1 construct: expressed in transfected cells; host or cells: HEK-293, stably transfected

hTRPV1 = molecular target: T2, hTRPV1 (Homo sapiens, UniProt Q8NER1); assay: Selectivity fluorimetric assay, CHO-K1 cells; format: cell-based; settings: capsaicine as reference agonist
T2 construct: expressed in transfected cells; host or cells: CHO-K1, stably transfected

[1] = molecular target: T3, rat isoform of TRPM8 channels (Rattus norvegicus, UniProt Q8R455); assay: Ca2+ fluorimetric assay, menthol-activated channel; format: cell-based
T3 construct: expressed in transfected cells
Method: TRPM8 blocker activity of all synthesized compounds was tested by Ca^2+ fluorimetric assays using HEK-293 cells stably expressing the rat isoform of TRPM8 channels, using menthol and AMTB as prototypical agonist and antagonist, respectively.
For measurement of the potency of the compounds, fluorimetric experiments were performed using HEK-293 cells (CRL-1573TM, American Type Culture Collection, LGC Promochem, Molsheim, France) that stably express rat TRPM8. The cells were seeded in 96-well plates (Corning Incorporated, Corning, NY) at a cell density of 40 000 cells 2 days before treatment. On the day of treatment, the medium was replaced with 100 μL of the dye loading solution Fluo-4 NW supplemented with probenecid 2.5 mM.
The tested molecules dissolved in DMSO were added at the desired concentrations, and the plates were incubated in darkness at 37 °C in a humidified atmosphere of 5% CO2 for 60 min. The fluorescence was measured using instrument settings appropriate for excitation at 485 nm and emission at 535 nm (POLARstar Omega BMG LABtech). A baseline recording of four cycles was recorded prior to stimulation with the agonist (100 μM menthol for TRPM8). The TRPM8 antagonist, 10 μM AMTB, was added to the medium containing the corresponding agonist to induce channel blockade. The changes in fluorescence intensity were recorded during 15 cycles more. The higher concentration of DMSO used in the experiment was added to the control wells. The cells’ fluorescence was measured before and after the addition of various concentrations of test compounds. The fluorescence values obtained are normalized to that prompted by the corresponding agonist (for channel activating compounds) or upon agonist and antagonist coexposure (for channel blocker compounds).

[2] = In vitro metabolic stability using liver microsomes; format: in vitro ADME, human
Method: Compound 4 was used as reference, considering that its main pitfall was represented by metabolic instability that the newly synthesized compounds were aimed in overcoming. […] Each sample (2.5 mM) was incubated with 100 mM phosphate buffer (pH 7.4) and 20 mg/mL of liver microsomes (Thermo Fisher Scientific, Bremen, Germany). After preincubation in water bath for 5 min, the mixture was incubated with 20 mM NADPH (protocol I) at 37 °C for 60 min in a Thermomixer comfort (Eppendorf, Hamburg, Germany). For the measurement of UGT activity the microsomes were preincubated with alamethicin, which forms pores in microsomal membranes, promoting access of substrate and cofactor to UGT enzymes. Subsequently, each sample was incubated with 100 mM phosphate buffer, 500 mM magnesium chloride, 10 mM NADPH, and 20 mM UDP-GlcUA at 37 °C for 60 min. Finally, the reactions from both protocols (protocols I and II) were stopped by the addition of 200 μL of ice-cold methanol, and then samples were centrifuged at 10 000 rpm at 25 °C for 5 min (Eppendorf microcentrifuge 5424, Hamburg, Germany). The supernatants were collected and injected in UHPLC-PDA. The control at 0 min was obtained by addition of the organic solvent immediately after incubation with microsomes. […] The extent of metabolism is expressed as a percentage of the parent compound turnover using the following equation, as previously described:[43] […]

hTRPA1 = molecular target: T4, hTRPA1 (Homo sapiens, UniProt O75762); assay: Selectivity fluorimetric assay, HEK-293 cells; format: cell-based; settings: AITC as reference agonist
T4 construct: expressed in transfected cells; host or cells: HEK-293, stably transfected

human TRPM8 [3] = molecular target: T5, human TRPM8 (Homo sapiens, UniProt Q7Z2W7); settings: HEK-293 cells expressing human TRPM8, compound 300 nM
human TRPM8 [4] = molecular target: T5, human TRPM8; assay: cell-based; settings: HEK293, read-out: % Inhibition 300 μM menthol-evoked currents at 300 nM compounds, HEK-293 cells expressing human TRPM8, compound 300 nM
Swiss CD1 mice = assay: CCI neuropathic pain model, thermal gradient ring; format: in vivo
Text: Further we investigated the efficacy of 31a in a chronic constriction injury (CCI) model of neuropathic pain, using a thermal gradient ring assay. This assay deeply differs from the canonical reflexive measures of nociception, in which the end point is withdrawal to a noxious stimulus, a fact that has been questioned during the past years for their unsatisfactory translation.[34] In particular, this test integrates information on temperature perception distinguishing exploratory behavior from thermal preference behavior.[35a]
The mean temperature to which the sham animal located during the observation time was 27.9 °C ± 0.35 °C (Figure 7A), and no statistical differences were evidenced at the different time points (Figure 7B). […] It is questionable why this transient effect was recorded, but it must be considered that TRPM8 antagonists are able to decrease the body temperature.
Neuropathic pain behavior was induced by ligation of the sciatic nerve as described previously.[27d] […] Drug effects were evaluated 7 and 14 days after ligation.
We utilized the thermal gradient ring from Ugo-Basile previously using a modified protocol from Touska et al., 2016.[35] […] On day 2, mice were injected and 30 min after were placed in the apparatus and measured for 60 min using 15–40 °C. […]

C57/BL6 mice = assay: Oxaliplatin-induced cold allodynia, acetone drop method; format: in vivo
Method: This effect was still evident 30 min after administration of a 30 μg dose (Figure 6).
Data are given as the mean ± SEM n = 6. Statistical analysis was two-way ANOVA followed by post hoc Bonferroni test by multiple comparison: ***p < 0.001, ****p < 0.0001.
For the oxaliplatin-induced neuropathic pain assay, oxaliplatin (Tocris) was dissolved in water with gentle warming and was subcutaneously (sc) injected on days 1, 3, and 5 at a 6 mg/kg dose. The day 7 after administration, experiments were performed. Together with oxaliplatin injection, saline and a 5% mannitol solution were intraperitoneally injected to prevent kidney damage and dehydration. 31a stock was prepared in DMSO (Sigma-Aldrich) and diluted in saline for injections.
Cold chemical thermal sensitivity was assessed using acetone drop method.[18b] Mice were placed in a metal mesh cage and allowed to habituate for approximately 30 min in order to acclimatize them. Freshly dispensed acetone drop (10 μL) was applied gently onto the mid-plantar surface of the hind paw. Cold chemical sensitive reaction with respect to paw licking was recorded as a positive response (nociceptive pain response). The responses were measured for 20 s with a digital stopwatch. For each measurement, the paw was sampled twice and the mean was calculated. The interval between each application of acetone was approximately 5 min.

[5] = Time-course cis to trans epimerization stability (HPLC); format: physicochemical; settings: during patch-clamp electrophysiology assays
Method: In this case, a different chemical approach is required because of the minor reactivity of anilines. Intermediates THBC 32a and 32b were coupled with 3CF3 or 2F or 4-F-phenyl isocyanate in basic medium of TEA. […] Absolute configuration was determined as described above. The formation of the cis intermediates, which was not observed with the N-benzyl or N-alkyl analogs, can be explained by the increased stability of the kinetic control species due to the higher rigidity of this structure. […] In addition, the corresponding C-11a epimers 36a′–38a′ could be obtained directly by reaction of 32b with the corresponding isocyanates and TEA at 60 °C for 30 min in 39–45% yields.
Figure S1: Time-course trans (36a’-38a’) / cis (36b-38b) HPLC peak area ratio in physiological
buffer (PBS, panel A) and methanol (Panel B).

TRPM8 = system: TRPM8; parameters: method as in PMID 26847872, PMID 25125580; settings: patch-clamp recordings; 18b; cited from earlier work
[6] = HEK-293 cells stably expressing rat TRPM8, menthol as agonist, mean ± SD of at least three measurements, read-out: IC50
[7] = Table 2, Ca2+ fluorimetric assay, read-out: IC50 Ca2+

T4 sequence (O75762 whole entry): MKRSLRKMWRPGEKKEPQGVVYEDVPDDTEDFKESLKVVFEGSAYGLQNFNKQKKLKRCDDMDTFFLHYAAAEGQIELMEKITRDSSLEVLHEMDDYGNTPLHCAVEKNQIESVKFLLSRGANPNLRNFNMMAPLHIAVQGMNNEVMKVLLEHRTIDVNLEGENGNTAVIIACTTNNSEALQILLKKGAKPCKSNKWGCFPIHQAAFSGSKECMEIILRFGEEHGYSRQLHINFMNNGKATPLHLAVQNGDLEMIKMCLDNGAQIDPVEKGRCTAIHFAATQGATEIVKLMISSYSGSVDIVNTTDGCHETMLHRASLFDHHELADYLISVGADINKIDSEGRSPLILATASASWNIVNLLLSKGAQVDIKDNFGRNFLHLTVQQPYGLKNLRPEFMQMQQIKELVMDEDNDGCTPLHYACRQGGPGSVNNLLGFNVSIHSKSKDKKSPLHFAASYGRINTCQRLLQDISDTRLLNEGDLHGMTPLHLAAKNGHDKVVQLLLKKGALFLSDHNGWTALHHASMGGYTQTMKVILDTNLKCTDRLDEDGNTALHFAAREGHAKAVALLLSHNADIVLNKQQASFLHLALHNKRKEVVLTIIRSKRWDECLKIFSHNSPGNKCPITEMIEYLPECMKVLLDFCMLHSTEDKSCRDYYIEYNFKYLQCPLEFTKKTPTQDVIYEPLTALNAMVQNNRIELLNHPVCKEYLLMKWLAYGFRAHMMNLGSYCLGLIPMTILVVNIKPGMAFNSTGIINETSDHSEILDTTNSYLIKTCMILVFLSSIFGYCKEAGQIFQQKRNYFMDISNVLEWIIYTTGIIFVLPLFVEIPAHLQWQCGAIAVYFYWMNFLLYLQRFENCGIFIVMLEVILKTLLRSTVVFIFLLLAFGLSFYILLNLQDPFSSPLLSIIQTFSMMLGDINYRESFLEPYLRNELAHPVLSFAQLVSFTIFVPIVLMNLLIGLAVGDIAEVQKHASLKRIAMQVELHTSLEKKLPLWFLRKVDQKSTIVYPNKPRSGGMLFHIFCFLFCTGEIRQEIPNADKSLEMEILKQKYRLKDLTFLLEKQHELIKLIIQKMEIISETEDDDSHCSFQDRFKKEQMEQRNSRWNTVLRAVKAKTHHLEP
T1 sequence (Q15858 whole entry): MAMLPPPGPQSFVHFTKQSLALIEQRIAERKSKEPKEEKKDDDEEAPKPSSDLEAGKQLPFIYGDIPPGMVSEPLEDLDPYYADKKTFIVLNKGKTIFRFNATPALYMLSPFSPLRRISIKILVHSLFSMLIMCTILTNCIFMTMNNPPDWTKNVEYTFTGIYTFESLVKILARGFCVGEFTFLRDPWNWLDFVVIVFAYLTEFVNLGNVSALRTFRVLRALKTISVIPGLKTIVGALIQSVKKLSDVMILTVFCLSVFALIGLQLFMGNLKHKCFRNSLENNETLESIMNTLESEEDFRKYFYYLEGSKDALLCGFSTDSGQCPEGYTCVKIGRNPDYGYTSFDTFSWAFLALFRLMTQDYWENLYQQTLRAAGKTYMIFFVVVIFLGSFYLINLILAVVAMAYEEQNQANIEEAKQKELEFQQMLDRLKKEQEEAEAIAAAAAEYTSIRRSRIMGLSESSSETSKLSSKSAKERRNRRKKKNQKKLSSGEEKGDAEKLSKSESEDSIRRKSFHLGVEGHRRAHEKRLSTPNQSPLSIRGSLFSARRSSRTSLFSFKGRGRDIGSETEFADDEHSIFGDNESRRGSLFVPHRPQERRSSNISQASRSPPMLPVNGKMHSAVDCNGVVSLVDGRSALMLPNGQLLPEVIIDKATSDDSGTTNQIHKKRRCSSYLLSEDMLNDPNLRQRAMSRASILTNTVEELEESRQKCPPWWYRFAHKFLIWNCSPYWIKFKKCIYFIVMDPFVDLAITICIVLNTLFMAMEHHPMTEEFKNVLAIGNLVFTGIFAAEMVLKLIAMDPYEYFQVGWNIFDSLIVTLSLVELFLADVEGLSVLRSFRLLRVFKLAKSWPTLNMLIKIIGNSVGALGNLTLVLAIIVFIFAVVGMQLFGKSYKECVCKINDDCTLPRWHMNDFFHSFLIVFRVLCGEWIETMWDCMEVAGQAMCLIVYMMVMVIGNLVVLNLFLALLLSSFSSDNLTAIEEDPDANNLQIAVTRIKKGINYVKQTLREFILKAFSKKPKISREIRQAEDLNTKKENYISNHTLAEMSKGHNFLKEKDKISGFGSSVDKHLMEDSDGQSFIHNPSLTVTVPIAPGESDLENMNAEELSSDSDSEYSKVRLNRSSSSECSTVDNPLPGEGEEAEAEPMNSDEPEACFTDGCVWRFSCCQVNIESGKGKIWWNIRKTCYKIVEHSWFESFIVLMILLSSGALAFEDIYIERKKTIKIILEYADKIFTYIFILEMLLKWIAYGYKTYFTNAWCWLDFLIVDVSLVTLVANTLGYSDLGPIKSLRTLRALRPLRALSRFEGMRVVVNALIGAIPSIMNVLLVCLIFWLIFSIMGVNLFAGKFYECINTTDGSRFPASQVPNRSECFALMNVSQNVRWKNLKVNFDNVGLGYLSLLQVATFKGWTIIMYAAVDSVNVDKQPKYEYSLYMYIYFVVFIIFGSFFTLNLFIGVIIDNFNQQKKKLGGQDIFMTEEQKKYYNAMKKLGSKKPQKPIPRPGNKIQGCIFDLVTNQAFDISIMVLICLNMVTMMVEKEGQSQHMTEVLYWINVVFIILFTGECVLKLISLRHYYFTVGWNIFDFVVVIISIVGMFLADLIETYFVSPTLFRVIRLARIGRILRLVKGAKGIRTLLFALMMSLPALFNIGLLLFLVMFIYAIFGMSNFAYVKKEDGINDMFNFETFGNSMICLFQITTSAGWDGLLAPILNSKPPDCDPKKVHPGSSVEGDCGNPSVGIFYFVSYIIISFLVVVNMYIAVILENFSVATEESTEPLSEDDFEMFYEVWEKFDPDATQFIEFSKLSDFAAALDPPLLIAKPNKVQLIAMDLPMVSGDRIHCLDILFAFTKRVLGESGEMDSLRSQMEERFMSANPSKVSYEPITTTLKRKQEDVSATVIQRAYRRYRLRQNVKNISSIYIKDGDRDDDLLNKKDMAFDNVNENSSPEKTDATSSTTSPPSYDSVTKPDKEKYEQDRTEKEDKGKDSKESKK
T3 sequence (Q8R455 whole entry, canonical isoform): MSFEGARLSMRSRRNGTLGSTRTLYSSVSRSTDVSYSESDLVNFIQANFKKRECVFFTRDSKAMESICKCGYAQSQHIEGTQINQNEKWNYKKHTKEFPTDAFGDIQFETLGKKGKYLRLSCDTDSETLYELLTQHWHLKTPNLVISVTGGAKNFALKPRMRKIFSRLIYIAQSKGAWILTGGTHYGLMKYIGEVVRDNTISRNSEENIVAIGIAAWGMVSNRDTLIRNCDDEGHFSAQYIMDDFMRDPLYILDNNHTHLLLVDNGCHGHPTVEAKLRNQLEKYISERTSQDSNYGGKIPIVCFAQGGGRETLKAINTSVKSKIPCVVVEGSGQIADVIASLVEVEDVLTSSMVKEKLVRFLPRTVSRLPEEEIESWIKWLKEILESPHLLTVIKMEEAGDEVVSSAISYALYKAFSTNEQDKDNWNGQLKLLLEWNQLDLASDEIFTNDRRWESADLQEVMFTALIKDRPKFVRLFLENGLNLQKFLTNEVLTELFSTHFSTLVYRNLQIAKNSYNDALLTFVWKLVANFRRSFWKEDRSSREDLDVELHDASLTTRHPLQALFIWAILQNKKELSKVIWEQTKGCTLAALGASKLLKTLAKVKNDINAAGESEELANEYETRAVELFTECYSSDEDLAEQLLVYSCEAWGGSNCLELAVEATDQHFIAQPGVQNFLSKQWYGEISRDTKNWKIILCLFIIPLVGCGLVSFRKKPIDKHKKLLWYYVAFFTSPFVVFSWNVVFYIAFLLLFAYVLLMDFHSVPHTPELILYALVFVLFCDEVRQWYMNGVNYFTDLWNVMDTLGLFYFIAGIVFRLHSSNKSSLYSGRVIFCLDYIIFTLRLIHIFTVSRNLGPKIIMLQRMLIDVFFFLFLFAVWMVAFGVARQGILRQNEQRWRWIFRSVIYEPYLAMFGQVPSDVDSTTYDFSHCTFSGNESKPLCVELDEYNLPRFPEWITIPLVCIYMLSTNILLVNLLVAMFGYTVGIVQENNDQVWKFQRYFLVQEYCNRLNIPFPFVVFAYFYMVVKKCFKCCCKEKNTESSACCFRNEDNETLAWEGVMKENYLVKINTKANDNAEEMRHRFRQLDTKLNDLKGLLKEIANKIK
T2 sequence (Q8NER1 whole entry): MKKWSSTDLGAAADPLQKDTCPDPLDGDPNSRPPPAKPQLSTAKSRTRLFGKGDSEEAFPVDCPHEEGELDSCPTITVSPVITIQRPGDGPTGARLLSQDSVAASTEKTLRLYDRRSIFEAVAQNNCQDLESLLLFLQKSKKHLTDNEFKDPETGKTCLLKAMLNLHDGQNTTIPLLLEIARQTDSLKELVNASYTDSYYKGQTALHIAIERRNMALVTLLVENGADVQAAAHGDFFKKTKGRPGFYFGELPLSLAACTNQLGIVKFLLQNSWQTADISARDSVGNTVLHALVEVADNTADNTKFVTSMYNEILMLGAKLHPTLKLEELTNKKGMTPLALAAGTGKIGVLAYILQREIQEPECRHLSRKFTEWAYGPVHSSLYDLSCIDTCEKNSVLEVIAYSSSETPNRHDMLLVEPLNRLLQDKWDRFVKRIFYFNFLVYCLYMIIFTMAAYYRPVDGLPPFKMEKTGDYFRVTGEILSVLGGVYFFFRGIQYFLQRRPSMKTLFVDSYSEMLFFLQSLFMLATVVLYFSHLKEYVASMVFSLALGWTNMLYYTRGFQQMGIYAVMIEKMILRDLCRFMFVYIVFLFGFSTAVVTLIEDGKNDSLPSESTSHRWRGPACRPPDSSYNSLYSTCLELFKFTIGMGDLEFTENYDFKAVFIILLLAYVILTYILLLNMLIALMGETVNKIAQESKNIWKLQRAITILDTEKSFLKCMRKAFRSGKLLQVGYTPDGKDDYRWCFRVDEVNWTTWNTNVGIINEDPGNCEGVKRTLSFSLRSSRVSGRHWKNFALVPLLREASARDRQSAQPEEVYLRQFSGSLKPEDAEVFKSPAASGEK

Structure (SMILES)	activity as agonist or antagonist on Nav1.7 (hNav1.7)	activity as agonist or antagonist on TRPV1 (hTRPV1)	IC50 [1, 6]	IC50 [1, 7]	activity as agonist or antagonist on TRPA1 (hTRPA1)	further results
COC(=O)CC[C@H]1N[C@H](C(=O)NCc2ccc(F)cc2)Cc2c1[nH]c1ccccc21 [11a, Methyl 3-((1R,3S)-3-((4-Fluorobenzyl)carbamoyl)-2,3,4,9-tetrahydro-1H-pyrido[3,4-b]indol-1-yl)propanoate]	no activity as agonists or antagonists	no activity as agonists or antagonists	800 nM and 1100 nM	1100 ± 500 nM	no activity as agonists or antagonists	turnover in absence of metabolic cofactors ([2]; 60 min with liver microsomes, no NADPH or UDP-GlcUA/NADPH): 66.5 ± 3.8%
O=C(O)CC[C@H]1N[C@H](C(=O)NCc2ccc(F)cc2)Cc2c1[nH]c1ccccc21 [12a, 3-((1R,3S)-3-((4-Fluorobenzyl)carbamoyl)-2,3,4,9-tetrahydro-1H-pyrido[3,4-b]indol-1-yl)propanoic Acid]	–	–	5000 ± 1200 nM	5000 ± 1200 nM	–	% Inhibition 300 μM menthol-evoked currents at 300 nM compounds (human TRPM8 [3]): 34.1±9.6%; inhibition at 0.3 µM (human TRPM8 [4]): 34%
O=C1[C@@H]2Cc3c([nH]c4ccccc34)[C@@H](c3ccc(Cl)cc3)N2C(=O)N1Cc1ccc(F)cc1 [31a, (5R,11aS)-5-(4-Chlorophenyl)-2-(4-fluorobenzyl)-5,6,11,11a-tetrahydro-1H-imidazo[1′,5′:1,6]pyrido[3,4-b]indole-1,3(2H)-dione]	no activity as agonists or antagonists	no activity as agonists or antagonists	500 ± 300 nM	>30000 nM	no activity as agonists or antagonists	mean preferred temperature (Swiss CD1 mice; CCI mice 14 days after ligation, 11.5 mg/kg ip, gradient 15-40 °C): 33.30 °C; effect on temperature preferences (Swiss CD1 mice; sham-mice): No effects; inhibition of OXP-induced cold allodynia (paw licking) (C57/BL6 mice; 1 μg sc, single administration): not effective; inhibition of OXP-induced cold allodynia (paw licking) (C57/BL6 mice; 10 μg sc): remarkable inhibitory effect; inhibition of OXP-induced cold allodynia (paw licking) (C57/BL6 mice; 30 μg sc): remarkable inhibitory effect; inhibition of OXP-induced cold allodynia 30 min after administration (C57/BL6 mice; 30 μg sc, 30 min): still evident; time of maximum inhibitory effect (C57/BL6 mice; 10 and 30 μg sc): 15 min; rTRPM8 IC50 (calcium microfluorimetric assays) ([1]; supplementary xlsx): > 30000 nM; metabolic turnover, phase I + phase II ([2]; protocol II, NADPH and UDP-GlcUA, 37 °C, 60 min): 46.0 ± 2.3%
O=C1[C@@H]2Cc3c([nH]c4ccccc34)[C@H](c3ccc(F)cc3)N2C(=O)N1c1cccc(C(F)(F)F)c1 [36b, (5S,11aS)-5-(4-Fluorophenyl)-2-(3-(trifluoromethyl)phenyl)-5,6,11,11a-tetrahydro-1H-imidazo[1′,5′:1,6]pyrido[3,4-b]indole-1,3(2H)-dione]	no activity as agonists or antagonists	no activity as agonists or antagonists	200 ± 200 nM	200 ± 200 nM	no activity as agonists or antagonists	IC50 ([1]; supplementary xlsx, read-out: rTRPM8 IC50 (calcium microfluorimetric assays)): 300 ± 400 nM; percentage of epimerization [5]: negligible
c1ccc(CN(CCc2c[nH]c3ccccc23)Cc2ccccc2)cc1 [compound 3]	–	–	–	–	–	IC50 (TRPM8): 367 nM
